Values quoted from earlier work as cited in PMC7941644, “Identification and Development of Therapeutics for COVID-19” (ArXiv, 2021).
Where a name gives a salt, the structure may show the parent alone. Read-outs that look alike come from different tables or passages of the source.

Experiments:
COVID-19 [1] = settings: vs SOC alone
COVID-19 [2] = system: COVID-19; set-up: method as in PMID 33492523; settings: mild to moderate symptoms, in addition to SOC; p = 0.06
Vero E6 cells = settings: read-out: 90% effective concentration (EC90)
SARS-CoV-1 [3] = settings: Vero E6 cells
SARS-CoV-2 [4] = settings: SARS-CoV-2 infection of Vero cells
COVID-19 [5] = system: COVID-19
COVID-19 [6] = settings: ivermectin preliminary; HCQ and lopinavir-ritonavir ref 144
COVID-19 [7] = settings: treatment vs control groups
COVID-19 [8] = settings: vs SOC
SARS-CoV-2 [9] = settings: control 16.8%, p < 0.001
COVID-19 [10] = settings: days 3–6; study design severely limited
SARS-CoV-2 [11] = system: SARS-CoV-2
COVID-19 [12] = system: COVID-19; remark: listed apart in the source
COVID-19 [13] = settings: HCQ arm vs control
SARS-CoV-2 [14] = settings: second interim analysis, 600 mg daily; control 3
COVID-19 [15] = settings: compared to placebo
COVID-19 [16] = system: COVID-19; remark: listed apart in the source
SARS-CoV-2 [17] = system: SARS-CoV-2; remark: listed apart in the source
IL-12 = system: IL-12; set-up: method as in PMID 8902882
COVID-19 [18] = system: COVID-19; set-up: method as in doi:10.1101/2020.06.22.20137273
IL-10 = system: IL-10; set-up: method as in PMID 8902882
COVID-19 [19] = system: COVID-19; set-up: method as in ref 210; combination ref 208; settings: phase 2 portion; bamlanivimab alone ref 210; combination ref 208
COVID-19 [20] = system: COVID-19; set-up: method as in PMID 33031764
COVID-19 [21] = system: COVID-19; remark: listed apart in the source
COVID-19 [22] = system: COVID-19; remark: listed apart in the source
COVID-19 [23] = system: COVID-19; set-up: method as in ref 145 = [145]; 145. August 6, 2021: Early Treatment of COVID-19 with Repurposed Therapies: The TOGETHER Adaptive Platform Trial (Edward Mills, PhD, FRCP) Rethinking Clinical Trials ( 2021 - 08 - 11 ) https://rethink; settings: placebo group 107; preliminary analysis as of August 6, 2021
COVID-19 [24] = system: COVID-19; set-up: method as in PMID 33175880
SARS-CoV-2 [25] = system: SARS-CoV-2; set-up: method as in PMID 32251768; settings: Vero-hSLAM; at concentrations much higher than existing dosage guidelines
COVID-19 [26] = system: COVID-19; set-up: method as in PMID 33662102; settings: 400 patients
COVID-19 [27] = system: COVID-19; set-up: method as in PMID 33065103
SARS-CoV-1 [28] = settings: mouse, in vivo
SARS-CoV-2 [29] = system: SARS-CoV-2; set-up: method as in PMID 32142651; settings: lung cells in vitro
COVID-19 [30] = system: COVID-19; remark: listed apart in the source
COVID-19 [31] = system: COVID-19; remark: listed apart in the source
COVID-19 [32] = system: COVID-19; remark: listed apart in the source
COVID-19 [33] = settings: 95% CI 0.376–0.547, p < 0.001
COVID-19 [34] = settings: p < 0.001
COVID-19 [35] = settings: significant when intubated patients excluded
COVID-19 [36] = system: COVID-19; remark: listed apart in the source
COVID-19 [37] = system: COVID-19; remark: listed apart in the source

COC(=O)OCOc1c2n(ccc1=O)N([C@@H]1c3ccccc3SCc3c1ccc(F)c3F)[C@@H]1COCCN1C2=O [baloxavir marboxil]
effect on viral clearance at day 14 and secondary outcomes (COVID-19 [1]): no significant effect

CCN(CC)CCCC(C)Nc1ccnc2cc(Cl)ccc12 (centres unmarked) [CQ, chloroquine]
hospital stay (COVID-19 [2]): 15.89 days | EC90 (Vero E6 cells): 6.9 µM | inhibition of viral entry (SARS-CoV-1 [3]): inhibited viral entry of SARS-CoV-1 | inhibition of viral replication (SARS-CoV-2 [4]): effective in inhibiting viral replication

CCN(CCO)CCCC(C)Nc1ccnc2cc(Cl)ccc12 (centres unmarked) [HCQ, hydroxychloroquine]
adjusted HR, risk of death (COVID-19 [5]; compared to no-HCQ group): 2.61 | rate of death (COVID-19 [5]; men, median age 65, no-HCQ group 14.1%): 27.8% | effect on COVID-19 outcomes (COVID-19 [6]): no effect | virological clearance rate, time to virological clearance, time to body temperature normalization (COVID-19 [7]): comparable outcomes | time to fever break and time to cough relief (COVID-19 [8]): decreased both average time to fever break and average time to cough relief | patients reporting side effects (SARS-CoV-2 [9]): 40.1% | virological clearance by nasopharyngeal swab (COVID-19 [10]): higher rates of virological clearance | median time to symptom alleviation (SARS-CoV-2 [11]; HCQ + SOC, SOC 21 days, p = 0.97): 19 days | estimated difference in negative conversion rate of SARS-CoV-2 in 28 days (SARS-CoV-2 [11]; SOC plus HCQ vs SOC, 95% CI −10.3% to 18.5%): 4.1% | diarrhea (SARS-CoV-2 [11]; SOC+HCQ, 0% in SOC group, p = 0.004): 10% | patients reporting adverse outcomes (SARS-CoV-2 [11]; SOC+HCQ, SOC only 8.8%): 30% | difference in viral load between HCQ and control groups (COVID-19 [12]; day 3, 95% CI −0.28 to 0.29): 0.01 | difference in viral load between HCQ and control groups (COVID-19 [12]; day 7, 95% CI −0.44 to 0.29): −0.07 | difference in time to complete resolution of symptoms (COVID-19 [12]; p = 0.38): -2 days | increase in cardiac events (COVID-19 [13]): 0.4 percentage points | individuals who had contracted COVID-19 (SARS-CoV-2 [14]): 4 | risk with short-term use: not associated with additional risk | inhibition of viral replication (SARS-CoV-2 [4]): effective in inhibiting viral replication

sotrovimab
rates of adverse events (COVID-19 [15]): comparable, and in some cases lower | more effective in reducing progression to the primary endpoint (hospitalized for more than 24 hours or died within 29 days) (COVID-19 [15]; 583 patients): 85%

Cc1cccc(C)c1OCC(=O)N[C@@H](Cc1ccccc1)[C@@H](O)C[C@H](Cc1ccccc1)NC(=O)[C@H](C(C)C)N1CCCNC1=O [lopinavir]
effect on COVID-19-related mortality (COVID-19 [16]): no effect

O=c1c2ccccc2[se]n1-c1ccccc1 [ebselen]
antiviral effect in SARS-CoV-2-infected Vero cells (SARS-CoV-2 [17]): strongest potency in reducing the viral load

C[C@@H]1C[C@H]2[C@@H]3CCC4=CC(=O)C=C[C@]4(C)[C@@]3(F)[C@@H](O)C[C@]2(C)[C@@]1(O)C(=O)CO [dexamethasone, 9α-fluoro-16α-methylprednisolone]
effect on IL-12 production (IL-12): dose-dependent inhibition of IL-12 production | 28-day mortality rate (COVID-19 [18]; all patients, 6 mg per day for up to 10 days, SOC 24.6%, p < 0.001): 21.6% | 28-day mortality (COVID-19 [18]; patients breathing independently at randomization, SOC 14.0%): 17.8% | 28-day mortality (COVID-19 [18]; patients receiving oxygen supplementation at randomization, SOC 26.2%): 23.3% | 28-day mortality (COVID-19 [18]; patients ventilated at randomization, SOC 41.4%): 29.3% | effect on IL-10 (IL-10): not to affect IL-10

bamlanivimab: human mAb derived from convalescent plasma of a recovered COVID-19 patient
effect on viral load (COVID-19 [19]): able to accelerate the reduction in viral load

lopinavir-ritonavir
effect on COVID-19 outcomes (COVID-19 [6]): no effect | effect on COVID-19-related mortality (COVID-19 [20]): no effect

NC(=O)c1nc(F)cnc1O [favipiravir, 6-fluoro-3-hydroxy-2-pyrazinecarboxamide]
hospital stay (COVID-19 [2]): 13.29 days | effect on viral clearance at day 14 and secondary outcomes (COVID-19 [1]): no significant effect | time to viral clearance by RT-PCR (COVID-19 [21]; 35 favipiravir, 45 control patients): four | patients with adverse side effects (COVID-19 [21]; control 56%): 11% | improvement rate of lung CT scans (COVID-19 [21]; day 14, control 62%, p = 0.004): 91% | effect on viral clearance at four days (secondary endpoint) (COVID-19 [22]): significant effect | tolerability (COVID-19 [22]): generally well-tolerated

COCCCC/C(=N\OCCN)c1ccc(C(F)(F)F)cc1 [fluvoxamine]
patients progressed to hospitalization for COVID-19 (COVID-19 [23]): 74

CC[C@H](C)[C@H]1O[C@]2(CC[C@@H]1C)C[C@@H]1C[C@@H](C/C=C(\C)[C@@H](O[C@H]3C[C@H](OC)[C@@H](O[C@H]4C[C@H](OC)[C@@H](O)[C@H](C)O4)[C@H](C)O3)[C@@H](C)/C=C/C=C3\CO[C@@H]4[C@H](O)C(C)=C[C@@H](C(=O)O1)[C@]34O)O2 [ivermectin]
clinical outcomes or viral clearance (COVID-19 [24]): no difference in clinical outcomes or viral clearance | effect on COVID-19 outcomes (COVID-19 [6]): no effect on COVID-19 outcomes | inhibition of viral replication (SARS-CoV-2 [25]): inhibit viral replication | duration of symptoms (COVID-19 [26]): no effect on the duration of symptoms | all-cause mortality (COVID-19 [27]): reduced all-cause mortality

poly(I:C)
effect when administered prior to infection (SARS-CoV-1 [28]): protective effects

CN(C)C(=O)COC(=O)Cc1ccc(OC(=O)c2ccc(NC(=N)N)cc2)cc1 [camostat mesylate]
block of viral entry (SARS-CoV-2 [29]): block the entry of SARS-CoV-2 into lung cells

TCZ: humanized monoclonal antibody that binds the insoluble and soluble receptor of IL-6
progression to invasive medical ventilation (COVID-19 [30]; SOC 32%, p = 0.006): 0% | mortality (COVID-19 [30]; SOC 48%, p = 0.066): 25% | progression to death and/or ICU admission (COVID-19 [30]; SOC 72%, p = 0.002): 25% | patients dying (COVID-19 [31]; 2 of 62 admitted after TCZ available, 11 of 23 (47.8%) before): 3.2% | multivariate HR, survival (COVID-19 [31]; CI 0.004–0.347, p = 0.004): 0.035 | rate ratio, hospital discharge within 28 days (COVID-19 [32]; 95% CI 1.12–1.34, p < 0.0001): 1.22 | rate ratio, 28-day mortality (COVID-19 [32]; RECOVERY combined with seven smaller randomized control trials, 95% CI 0.79–0.96, p = 0.005): 0.87 | 28-day mortality (COVID-19 [32]; SOC alone 33%): 29% | rate ratio, 28-day mortality (COVID-19 [32]; TCZ vs SOC, 95% CI 0.77–0.96, p = 0.007): 0.86 | reduction in 28-day mortality (COVID-19 [32]; combined analysis of RECOVERY with smaller RCTs): 13% | probability of hospital discharge within 28 days (COVID-19 [32]; living patients, SOC 47%): 54% | participants with adverse reactions determined to be associated with the intervention (COVID-19 [32]; out of 2,022 participants receiving TCZ): three | odds ratio of mortality (COVID-19 [33]): 0.453 | HR, survivorship (COVID-19 [34]; 19 studies): 0.41 | HR, survivorship (COVID-19 [34]; excluding studies that administered a steroid alongside TCZ): 0.04 | mortality, TCZ vs SOC (COVID-19 [35]): did not differ | adjusted HR, progression to invasive medical ventilation and/or death (COVID-19 [36]; 14-day period, CI 0.40–0.92, p = 0.020): 0.61 | death rate (COVID-19 [36]; control 20%): 7% | secondary infections (COVID-19 [36]; control group 4%, p < 0.0001): 24% | change in symptoms following treatment (COVID-19 [37]): rapid improvement in symptoms
